# Article PMC8365602 (Journal of Medicinal Chemistry, 2021)
# What was measured:
# [1] = system: E. coli-stimulated macrophages; assay: Arachidonic acid release from E. coli-stimulated macrophages; assay type: cell-based, human; conditions: ≤1 μM
# Experimental: Macrophages were stimulated in PBS pH 7.4 (containing 1 mM CaCl2) with E. coli (serotype O6:K2:H1) at a ratio of 1:50 (macrophages: E. coli) for 180 min at 37 °C and 5% CO2.[24]
# Fatty acids and lipid mediators were extracted from macrophage supernatants or murine peritoneal exudates (1 mL) after addition of two aliquots of ice-cold methanol.[23]d8-5S-HETE, d4-LTB4, d5-lipoxin A4, d5-resolvin D2, d4-PGE2 (200 nM, each, Cayman Chemicals), and d8-arachidonic acid (10 μM, Cayman Chemicals) were added as internal standards. After protein precipitation at −20 °C for ≥1 h, supernatants (1200g, 10 min, 4 °C) were acidified (pH 3.5) and loaded onto solid-phase cartridges (Sep-Pak Vac 6cc 500 mg/6 mL C18; Waters), which had been equilibrated with methanol and H2O. The columns were extensively washed with H2O and hexane before lipid mediators were eluted with methyl formate, evaporated to dryness, dissolved in methanol/H2O (50:50), and analyzed by UPLC-MS/MS.[23]
# Absolute quantification was based on 6 internal and 45 external standards.[23]
# 12-LOX = molecular target: T1, 12-LOX (Homo sapiens, UniProt P18054); assay: 12-LOX product formation in activated PMNL; assay type: cell-based
# T1 construct: endogenous in cells; host or cells: primary human PMNL
# Experimental: (§2) Freshly isolated PMNL (5 × 10^6) suspended in PBS pH 7.4 with 1 mg/mL glucose or freshly withdrawn human whole blood were preincubated with the test compounds for 10 min (or as indicated) at 37 °C. […] The reaction was stopped with an equal volume of methanol.
# 15-LOX = 15-LOX product formation in activated PMNL; assay type: cell-based, human
# Experimental: as §2
# [2] = system: human macrophages (M1 subtype); assay: Lipid mediator profile of M1 macrophages stimulated with pathogenic E. coli; assay type: cell-based; conditions: 1 μM
# Experimental: Macrophages were polarized to the M1 phenotype by stimulation with LPS (100 ng/mL, Sigma-Aldrich) and interferon (IFN)-γ (20 ng/mL, Peprotech, Hamburg, Germany) for 48 h.[23]
# Monocytes (1 × 10^6/mL), which were prestimulated with LPS (1 μg/mL) for 24 h to induce COX-2 expression, or M1 macrophages (2 × 10^6 cells/mL) were preincubated with the vehicle (0.1% DMSO), 27a, or 12a for 15 min. Arachidonic acid (20 μM) and A23187 (2.5 μM) were added to monocytes suspended in a monocyte medium (lacking FCS if indicated) to induce lipid mediator formation.[81]
# Fatty acids and lipid mediators were extracted from macrophage supernatants or murine peritoneal exudates (1 mL) after addition of two aliquots of ice-cold methanol.[23]d8-5S-HETE, d4-LTB4, d5-lipoxin A4, d5-resolvin D2, d4-PGE2 (200 nM, each, Cayman Chemicals), and d8-arachidonic acid (10 μM, Cayman Chemicals) were added as internal standards. […] The columns were extensively washed with H2O and hexane before lipid mediators were eluted with methyl formate, evaporated to dryness, dissolved in methanol/H2O (50:50), and analyzed by UPLC-MS/MS.[23]
# To quantify lipid mediators and fatty acids in macrophages, murine plasma, and murine peritoneal exudates, the mobile phase methanol/H2O (acidified with 0.01% acetic acid) was ramped from 42:58 to 86:14 over 12.5 min, followed by isocratic elution with methanol/H2O (98:2) for 3 min. […]
# [3] = system: reconstructed human epidermis (RHE); assay: Experimental atopic dermatitis in reconstructed human epidermis (RHE); assay type: cell-based; conditions: RHE
# Experimental: (§1) Compound 27a was evaluated in an inflammatory model of RHE by Synelvia S.A.S. (Labège, France) according to the company’s protocol.[88] In brief, primary human keratinocytes were used to generate RHE on polycarbonate filters as described.[88] RHE was allowed to acclimate for 6 days (5% CO2, 37 °C) prior to incubation with 27a (5, 10, 25 μM), dexamethasone (1 μM), or vehicle (0.05% DMSO), and a proinflammatory cytokine cocktail for 4 days at 5% CO2 and 37 °C. The culture medium including compounds and cytokines was changed on days 6, 8, and 10. Each culture condition was repeated three times. Acute cytotoxicity of 27a was excluded at the concentrations studied within 24 h by measuring the mitochondrial dehydrogenase activity (MTT assay).
# Morphological changes (i.e., spongiosis and the formation of keratohyalin granules) were evaluated for sections of paraffin-embedded RHEs after hematoxylin-eosin staining.[89] The permeability of the skin barrier was estimated from the transepidermal water loss at the RHE surface.[90] The surface pH was determined with a pH electrode as reported.[89] The permeability of the stratum corneum was addressed by applying Lucifer yellow onto the RHE surface and inspecting the penetration by fluorescence microscopy.[88] TSLP and IL-8 levels were analyzed by ELISA (according to the specifications of Synelvia S.A.S.) in the culture medium on day 2 and day 4 after addition of cytokines, respectively.
# [4] = system: zymosan-induced murine peritonitis; assay: Zymosan-induced peritonitis in mice; assay type: in vivo
# Experimental: Male CD-1 mice (33–39 g, 6–8 weeks, Charles River Laboratories; Calco, Italy) and female BALB/c mice (20 g, 8 weeks, Charles River Laboratories) were fed with standard rodent chow and water and acclimated for 4 days at a 12 h light and 12 h dark schedule in a constant air-conditioned environment (21 ± 2 °C). Mice were randomly assigned to groups, and experiments were carried out during the light phase.
# Zymosan (2 mg/mL in saline, i.p., 0.5 mL, Sigma-Aldrich) was injected at 30 min (i.p.) or 60 min (p.o.) post compound administration. Mice were sacrificed by inhalation of CO2 after another 30 min to determine LTC4 levels, lipid mediator profiles, metabolites, and vascular permeability and after 4 h to analyze LTB4 levels and cell infiltration.[72] Plasma and peritoneal exudates were collected, and cells were counted in exudates after trypan blue staining. Vascular permeability was measured by injection of Evans blue dye (40 mg/kg in saline, 0.3 mL, Sigma-Aldrich) into the tail vain directly before peritonitis induction.[72] The exudate was centrifuged (3000g, 5 min), and the absorbance was measured at 610 nm (DU730 spectrophotometer, Beckman Coulter, Krefeld, Germany). Levels of LTB4 and cysteinyl-LTs (dominated by LTC4) were quantified in the exudate by ELISA (Enzo Life Sciences, Lörrach, Germany) according to the manufacturer’s instructions. Compound 27a, its metabolites, and lipid mediators were extracted and analyzed by UPLC-MS/MS.
# human keratinocytes = assay: Keratinocyte cytotoxicity (MTT) in the RHE model; assay type: cell-based; conditions: MTT assay
# Experimental: as §1
# [5] = 10 mg/kg i.p., 30 min post zymosan
# [6] = 10 mg/kg i.p., 4 h post zymosan
# T1 sequence (P18054 whole entry): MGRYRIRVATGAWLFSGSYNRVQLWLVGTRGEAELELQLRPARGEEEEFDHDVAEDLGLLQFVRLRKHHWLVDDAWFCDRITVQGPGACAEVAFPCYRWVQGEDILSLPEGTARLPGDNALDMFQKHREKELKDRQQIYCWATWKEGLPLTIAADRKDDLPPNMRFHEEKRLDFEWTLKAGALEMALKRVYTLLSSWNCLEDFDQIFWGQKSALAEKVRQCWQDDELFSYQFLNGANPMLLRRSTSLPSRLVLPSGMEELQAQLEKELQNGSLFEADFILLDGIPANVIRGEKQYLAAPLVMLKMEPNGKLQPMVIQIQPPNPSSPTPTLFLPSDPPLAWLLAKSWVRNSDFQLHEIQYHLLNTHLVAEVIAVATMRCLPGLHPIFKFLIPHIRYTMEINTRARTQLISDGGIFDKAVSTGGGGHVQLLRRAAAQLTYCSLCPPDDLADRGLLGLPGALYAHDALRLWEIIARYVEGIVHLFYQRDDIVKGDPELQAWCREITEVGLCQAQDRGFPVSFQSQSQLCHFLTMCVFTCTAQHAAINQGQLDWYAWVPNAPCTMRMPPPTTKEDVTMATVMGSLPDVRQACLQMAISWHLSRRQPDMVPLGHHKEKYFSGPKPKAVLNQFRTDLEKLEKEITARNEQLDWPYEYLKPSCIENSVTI
structure (smiles),measurement,setting,value
"C/C(=C\CC/C(C)=C/CC[C@]1(C)CCc2c(C)c(O)c(C)c(C)c2O1)CCC=C(CO)CO [Compound 27a, α-amplexichromanol]",Availability of free arachidonic acid,[1],neither reduced the availability of free arachidonic acid
same,12-LOX inhibition,12-LOX,not substantially inhibited
same,15-LOX inhibition,15-LOX; activated human PMNL,not substantially inhibited
same,15-LOX product formation,15-LOX; submicromolar concentrations,increased by a trend
same,Biosynthesis of 5-LOX-derived products in M1 macrophages,[2],preferentially suppressed the biosynthesis of 5-LOX-derived products
same,PGE2 levels in M1 macrophages,[2],slightly increased
same,TSLP expression,[3]; cytokine cocktail 2 days,did not influence TSLP expression
same,Epidermal disorganization induced by cytokine treatment,[3]; cytokine cocktail 4 days,attenuated the epidermal disorganization
same,IL-8 levels,[3]; cytokine cocktail 4 days,reduced IL-8 levels
same,"Skin barrier functions (TEWL, Lucifer yellow)",[3]; cytokine cocktail 4 days,substantially improved skin barrier functions
same,pH at the RHE surface,[3]; cytokine cocktail 4 days,decreased even below the basal level
same,Cysteinyl-LTs in the exudate,"[4]; 3 mg/kg p.o., 30 min post zymosan",decreased to a basal level
same,LTC4 levels in the exudate,[4]; [5],strongly decreased LTC4 levels in the exudate
same,Vascular permeability,[4]; [5],reduced vascular permeability
same,Influx of cells into the peritoneal cavity,[4]; [6],accordingly reduced
same,LTB4 levels in the exudate,[4]; [6],substantially lowered LTB4 levels
same,Resolvin E3 levels in the exudate,"[4]; 10 mg/kg p.o., 30 min post zymosan injection, individual mice",moderately increased
same,Cytotoxic effects on human keratinocytes,human keratinocytes,excluded
